According to the supplement of paper PMC4862054:

Key:
Details in all cases: incubation time: 72 h
MCF-10A [1] = assay: normalised response (% of control), CellTox Green; higher = less cell death (100 = DMSO, 0 = benzethonium chloride kill control)
Method in brief: (§1)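 Normalised signals at single concentrations make up the values. They come from breast cancer cell lines seeded (20 µl suspension) into 384-well plates with compound at 5 concentrations in 10-fold steps over a compound-specific 10,000-fold range, incubated 72 h, and read for CellTox Green fluorescence then CellTiter-Glo luminescence. Each plate was normalised to 0.1 % DMSO (100) and a positive kill control (0).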

HCC1937 [2] = assay: as above
Method in brief: as §1

MFM-223 [3] = assay: as above
Method in brief: as §1

BT-549 [4] = assay: as above
Method in brief: as §1

CAL-51 [5] = assay: as above
Method in brief: as §1

CAL-120 [6] = assay: as above
Method in brief: as §1

HCC1143 [7] = assay: as above
Method in brief: as §1

BT-474 [8] = assay: as above
Method in brief: as §1

DU-4475 [9] = assay: as above
Method in brief: as §1

MDA-MB-468 [10] = assay: as above
Method in brief: as §1

HCC1599 [11] = assay: as above
Method in brief: as §1

CAL-148 [12] = assay: as above
Method in brief: as §1

HDQ-P1 [13] = assay: as above
Method in brief: as §1

CAL-85-1 [14] = assay: as above
Method in brief: as §1

MDA-MB-453 [15] = assay: as above
Method in brief: as §1

MDA-MB-436 [16] = assay: as above
Method in brief: as §1

MDA-MB-231 [17] = assay: as above
Method in brief: as §1

MCF-10A [18] = assay: normalised response (% of control), CellTiter-Glo; higher = more viable cells (100 = DMSO, 0 = benzethonium chloride kill control)
Protocol: (§2)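 DSRT, 72 h incubation, CellTox Green / CellTiter-Glo readout. Signal is normalised to DMSO and benzethonium chloride controls. Value is the normalised response at the highest dose.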

HCC1937 [19] = assay: as above
Protocol: as §2

MFM-223 [20] = assay: as above
Protocol: as §2

BT-549 [21] = assay: as above
Protocol: as §2

CAL-51 [22] = assay: as above
Protocol: as §2

Hs578T [23] = assay: as above
Protocol: as §2

CAL-120 [24] = assay: as above
Protocol: as §2

HCC1143 [25] = assay: as above
Protocol: as §2

BT-474 [26] = assay: as above
Protocol: as §2

SK-BR-3 [27] = assay: as above
Protocol: as §2

DU-4475 [28] = assay: as above
Protocol: as §2

MDA-MB-468 [29] = assay: as above
Protocol: as §2

HCC1599 [30] = assay: as above
Protocol: as §2

CAL-148 [31] = assay: as above
Protocol: as §2

HDQ-P1 [32] = assay: as above
Protocol: as §2

CAL-85-1 [33] = assay: as above
Protocol: as §2

MDA-MB-453 [34] = assay: as above
Protocol: as §2

MDA-MB-436 [35] = assay: as above
Protocol: as §2

MDA-MB-231 [36] = assay: as above
Protocol: as §2

Hs578T [37] = assay: normalised response (% of control), CellTox Green; higher = less cell death (100 = DMSO, 0 = benzethonium chloride kill control)
Method in brief: as §1

MCF-10A [38] = assay: normalised response (% of control), CellTiter-Glo; higher = more viable cells (100 = DMSO, 0 = benzethonium chloride kill control); remark: listed apart in the source
Method in brief: as §1

HCC1937 [39] = assay: as above; remark: listed apart in the source
Method in brief: as §1

MFM-223 [40] = assay: as above; remark: listed apart in the source
Method in brief: as §1

BT-549 [41] = assay: as above; remark: listed apart in the source
Method in brief: as §1

CAL-51 [42] = assay: as above; remark: listed apart in the source
Method in brief: as §1

Hs578T [43] = assay: as above; remark: listed apart in the source
Method in brief: as §1

CAL-120 [44] = assay: as above; remark: listed apart in the source
Method in brief: as §1

HCC1143 [45] = assay: as above; remark: listed apart in the source
Method in brief: as §1

BT-474 [46] = assay: as above; remark: listed apart in the source
Method in brief: as §1

SK-BR-3 [47] = assay: as above; remark: listed apart in the source
Method in brief: as §1

DU-4475 [48] = assay: as above; remark: listed apart in the source
Method in brief: as §1

MDA-MB-468 [49] = assay: as above; remark: listed apart in the source
Method in brief: as §1

HCC1599 [50] = assay: as above; remark: listed apart in the source
Method in brief: as §1

CAL-148 [51] = assay: as above; remark: listed apart in the source
Method in brief: as §1

HDQ-P1 [52] = assay: as above; remark: listed apart in the source
Method in brief: as §1

CAL-85-1 [53] = assay: as above; remark: listed apart in the source
Method in brief: as §1

MDA-MB-453 [54] = assay: as above; remark: listed apart in the source
Method in brief: as §1

MDA-MB-436 [55] = assay: as above; remark: listed apart in the source
Method in brief: as §1

MDA-MB-231 [56] = assay: as above; remark: listed apart in the source
Method in brief: as §1

Structure (SMILES)	normalised response (MCF-10A [1]) [%]	normalised response (HCC1937 [2]) [%]	normalised response (MFM-223 [3]) [%]	normalised response (BT-549 [4]) [%]	normalised response (CAL-51 [5]) [%]	normalised response (CAL-120 [6]) [%]	normalised response (HCC1143 [7]) [%]	normalised response (BT-474 [8]) [%]	normalised response (DU-4475 [9]) [%]	normalised response (MDA-MB-468 [10]) [%]	normalised response (HCC1599 [11]) [%]	normalised response (CAL-148 [12]) [%]	normalised response (HDQ-P1 [13]) [%]	normalised response (CAL-85-1 [14]) [%]	normalised response (MDA-MB-453 [15]) [%]	normalised response (MDA-MB-436 [16]) [%]	normalised response (MDA-MB-231 [17]) [%]	normalised response (MCF-10A [18]) [%]	normalised response (HCC1937 [19]) [%]	normalised response (MFM-223 [20]) [%]	other results
Cc1nc(C(=O)NCC(=O)O)c(O)c2ccc(Oc3ccccc3)cc12 [FG-4592] (10000 nM)	111	72.6	104	94.7	105	107	118	98	97.7	125	99.9	89.3	114	78.6	95.2	93.9	95.7	107	100	103	normalised response (BT-549 [21]): 92%; normalised response (CAL-51 [22]): 97.7%; normalised response (Hs578T [23]): 109%; normalised response (CAL-120 [24]): 102%; normalised response (HCC1143 [25]): 98.5%; normalised response (BT-474 [26]): 94.5%; normalised response (SK-BR-3 [27]): 101%; normalised response (DU-4475 [28]): 97%; normalised response (MDA-MB-468 [29]): 110%; normalised response (HCC1599 [30]): 92%; normalised response (CAL-148 [31]): 113%; normalised response (HDQ-P1 [32]): 92%; normalised response (CAL-85-1 [33]): 101%; normalised response (MDA-MB-453 [34]): 97.4%; normalised response (MDA-MB-436 [35]): 98.8%; normalised response (MDA-MB-231 [36]): 96.1%
CC(C)(C)c1nc(-c2cccc(NS(=O)(=O)c3c(F)cccc3F)c2F)c(-c2ccnc(N)n2)s1 [Dabrafenib] (2500 nM)	102		104	94.2	106	78.8	120	103	70.1	87	103			83.9	96.6	107	97.8	96	96.8	93.1	normalised response (BT-549 [21]): 92.7%; normalised response (CAL-51 [22]): 72.6%; normalised response (Hs578T [23]): 88%; normalised response (CAL-120 [24]): 75.8%; normalised response (HCC1143 [25]): 95%; normalised response (BT-474 [26]): 100%; normalised response (SK-BR-3 [27]): 80.8%; normalised response (DU-4475 [28]): 0.71%; normalised response (MDA-MB-468 [29]): 89.2%; normalised response (HCC1599 [30]): 89.4%; normalised response (CAL-148 [31]): 108%; normalised response (HDQ-P1 [32]): 94%; normalised response (CAL-85-1 [33]): 108%; normalised response (MDA-MB-453 [34]): 95.4%; normalised response (MDA-MB-436 [35]): 92.3%; normalised response (MDA-MB-231 [36]): 101%
CC(C)(C)NC(=O)[C@H]1CC[C@H]2[C@@H]3CC[C@H]4NC(=O)C=C[C@]4(C)[C@H]3CC[C@]12C [Finasteride] (100 nM)	95.4	99.7	85.2	102	101	100	93.1	99	102	98.8	104	57.3	83.5	100	103	94.8	101				normalised response (Hs578T [37]): 107%; normalised response (MCF-10A [38]): 110%; normalised response (HCC1937 [39]): 95.7%; normalised response (MFM-223 [40]): 104%; normalised response (BT-549 [41]): 100%; normalised response (CAL-51 [42]): 87.7%; normalised response (Hs578T [43]): 105%; normalised response (CAL-120 [44]): 114%; normalised response (HCC1143 [45]): 98.9%; normalised response (BT-474 [46]): 99.2%; normalised response (SK-BR-3 [47]): 101%; normalised response (DU-4475 [48]): 104%; normalised response (MDA-MB-468 [49]): 94.9%; normalised response (HCC1599 [50]): 97.8%; normalised response (CAL-148 [51]): 108%; normalised response (HDQ-P1 [52]): 96.6%; normalised response (CAL-85-1 [53]): 98.5%; normalised response (MDA-MB-453 [54]): 109%; normalised response (MDA-MB-436 [55]): 107%; normalised response (MDA-MB-231 [56]): 104%
CN(C)C(=N)NC(=N)N [Metformin] (1000 nM)	-3.22	93.4	101	70.4	71.1	96.5	85.4	92	91.6	61	95.2	95.7	70.7	97.9	91	71.8	63.5				normalised response (Hs578T [37]): 105%; normalised response (MCF-10A [38]): 77%; normalised response (HCC1937 [39]): 93.2%; normalised response (MFM-223 [40]): 83.2%; normalised response (BT-549 [41]): 103%; normalised response (CAL-51 [42]): 65.9%; normalised response (Hs578T [43]): 102%; normalised response (CAL-120 [44]): 104%; normalised response (HCC1143 [45]): 102%; normalised response (BT-474 [46]): 96.3%; normalised response (SK-BR-3 [47]): 81.9%; normalised response (DU-4475 [48]): 88.4%; normalised response (MDA-MB-468 [49]): 90.3%; normalised response (HCC1599 [50]): 95.9%; normalised response (CAL-148 [51]): 102%; normalised response (HDQ-P1 [52]): 98%; normalised response (CAL-85-1 [53]): 97.7%; normalised response (MDA-MB-453 [54]): 84.3%; normalised response (MDA-MB-436 [55]): 108%; normalised response (MDA-MB-231 [56]): 94.1%
CN(C)C(=N)NC(=N)N [Metformin] (100000 nM)	89.2	95.3	96.3	76.3	86.8	94.6		91.1	90.3		76	98.1	99.2	125	90.5	93.3	69.3	75.6	86.8	90.3	normalised response (Hs578T [37]): 52.6%; normalised response (BT-549 [21]): 99.3%; normalised response (CAL-51 [22]): 82.5%; normalised response (Hs578T [23]): 92.6%; normalised response (CAL-120 [24]): 108%; normalised response (HCC1143 [25]): 93%; normalised response (BT-474 [26]): 95.5%; normalised response (SK-BR-3 [27]): 80%; normalised response (DU-4475 [28]): 79.1%; normalised response (MDA-MB-468 [29]): 86.1%; normalised response (HCC1599 [30]): 108%; normalised response (CAL-148 [31]): 104%; normalised response (HDQ-P1 [32]): 95.4%; normalised response (CAL-85-1 [33]): 104%; normalised response (MDA-MB-453 [34]): 89.9%; normalised response (MDA-MB-436 [35]): 102%; normalised response (MDA-MB-231 [36]): 91.2%
